Data taken from ChEMBL document CHEMBL1134476, “Pharmacological and behavioral analysis of the effects of some bivalent ligand-based monoamine reuptake inhibitors” (J Med Chem, 2001).

Assays:
Assay type in all cases: subcellular, Brain
[1] = target: T1, Sodium-dependent dopamine transporter (Rattus norvegicus, UniProt P23977); experiment: Inhibition of high affinity DA uptake into rat synaptosomes using [3H]DA
[2] = target: T2, Norepinephrine transporter (Rattus norvegicus, UniProt Q9WTR4); experiment: Ability to inhibit high affinity uptake of norepinephrine transporter into the nerve endings of rat synaptosomes using [3H]NE as a radioligand
[3] = target: T1, Sodium-dependent dopamine transporter; experiment: Displacement of [3H]mazindol binding to dopamine transporter (DAT) in rat synaptosomes
[4] = target: Sodium-dependent serotonin transporter (Rattus norvegicus, UniProt P31652); experiment: Inhibition of high affinity serotonin uptake into rat synaptosomes using [3H]5-HT
[5] = target: T2, Norepinephrine transporter; experiment: Ability to inhibit high affinity uptake of norepinephrine transporter into the nerve endings of rat synaptosomes using [3H]NE radioligand
[6] = target: T1, Sodium-dependent dopamine transporter; experiment: Ability to inhibit high affinity uptake of DA into the nerve endings of rat synaptosomes using [3H]DA as a radioligand

T1 sequence (P23977 whole entry): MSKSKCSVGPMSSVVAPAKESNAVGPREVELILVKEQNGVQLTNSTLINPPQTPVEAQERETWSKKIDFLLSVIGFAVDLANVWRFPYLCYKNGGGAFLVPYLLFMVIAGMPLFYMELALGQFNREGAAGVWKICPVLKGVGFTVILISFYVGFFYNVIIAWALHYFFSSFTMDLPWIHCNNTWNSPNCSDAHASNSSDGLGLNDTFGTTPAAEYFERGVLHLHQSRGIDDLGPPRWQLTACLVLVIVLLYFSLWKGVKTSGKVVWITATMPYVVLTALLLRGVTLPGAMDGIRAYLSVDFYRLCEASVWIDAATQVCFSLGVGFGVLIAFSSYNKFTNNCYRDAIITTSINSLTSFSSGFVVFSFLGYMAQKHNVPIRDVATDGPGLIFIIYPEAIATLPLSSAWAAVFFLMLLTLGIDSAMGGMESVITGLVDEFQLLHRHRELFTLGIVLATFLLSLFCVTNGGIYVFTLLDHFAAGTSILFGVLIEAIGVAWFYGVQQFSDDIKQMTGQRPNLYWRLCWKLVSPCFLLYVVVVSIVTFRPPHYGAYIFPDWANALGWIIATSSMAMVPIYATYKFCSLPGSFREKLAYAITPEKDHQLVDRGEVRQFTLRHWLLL
Chain of Sodium-dependent serotonin transporter (P31652 whole entry): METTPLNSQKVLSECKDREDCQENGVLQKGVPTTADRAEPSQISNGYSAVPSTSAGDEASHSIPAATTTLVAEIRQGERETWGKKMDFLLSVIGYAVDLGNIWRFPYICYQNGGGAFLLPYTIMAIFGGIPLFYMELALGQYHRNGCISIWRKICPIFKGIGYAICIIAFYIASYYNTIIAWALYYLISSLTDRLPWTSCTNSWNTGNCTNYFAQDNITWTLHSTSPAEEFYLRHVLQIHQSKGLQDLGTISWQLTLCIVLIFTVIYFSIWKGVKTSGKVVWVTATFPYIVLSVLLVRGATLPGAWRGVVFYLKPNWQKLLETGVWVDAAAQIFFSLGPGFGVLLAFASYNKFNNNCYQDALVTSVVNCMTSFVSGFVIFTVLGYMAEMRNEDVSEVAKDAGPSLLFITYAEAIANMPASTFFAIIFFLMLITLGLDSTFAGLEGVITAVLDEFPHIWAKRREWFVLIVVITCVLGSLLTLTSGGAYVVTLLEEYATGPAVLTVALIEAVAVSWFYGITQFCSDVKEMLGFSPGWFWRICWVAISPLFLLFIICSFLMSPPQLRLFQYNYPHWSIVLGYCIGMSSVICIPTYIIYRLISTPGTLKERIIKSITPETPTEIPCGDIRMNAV
T2 sequence (Q9WTR4 whole entry): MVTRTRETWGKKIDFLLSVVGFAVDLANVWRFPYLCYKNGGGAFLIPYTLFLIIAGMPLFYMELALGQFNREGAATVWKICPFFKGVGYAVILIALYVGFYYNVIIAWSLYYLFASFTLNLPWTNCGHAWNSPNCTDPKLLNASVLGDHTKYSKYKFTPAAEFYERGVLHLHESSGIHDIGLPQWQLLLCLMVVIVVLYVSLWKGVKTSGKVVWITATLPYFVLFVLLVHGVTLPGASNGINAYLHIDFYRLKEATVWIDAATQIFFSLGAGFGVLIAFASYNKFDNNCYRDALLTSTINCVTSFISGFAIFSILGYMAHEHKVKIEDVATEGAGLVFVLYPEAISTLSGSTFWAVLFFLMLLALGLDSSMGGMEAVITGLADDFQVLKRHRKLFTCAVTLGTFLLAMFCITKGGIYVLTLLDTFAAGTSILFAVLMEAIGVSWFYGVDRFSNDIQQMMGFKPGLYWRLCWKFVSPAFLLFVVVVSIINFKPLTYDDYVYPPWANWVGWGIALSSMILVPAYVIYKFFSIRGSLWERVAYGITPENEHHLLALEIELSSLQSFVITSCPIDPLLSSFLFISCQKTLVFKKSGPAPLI

SMILES	Ki [1] [nM]	Ki [2] [nM]	Ki [3] [nM]	Ki [4] [nM]	Ki [5] [nM]	Ki [6] [nM]
CNC(=O)[C@H]1CN(C)CC[C@@H]1c1ccc(Cl)cc1	> 9000	4380	> 12000	> 53000		
COC(=O)[C@@H]1CN(C)CC[C@H]1c1ccc(Cl)cc1	2890		1770	3600	242	
COC(=O)[C@H]1CN(C)CC[C@@H]1c1ccc(Cl)cc1	228		248	5880	90	
CN1CC[C@H](c2ccc(Cl)cc2)[C@@H](C(=O)NCCCCCNC(=O)[C@H]2CN(C)CC[C@@H]2c2ccc(Cl)cc2)C1	39	158	103	7		
CN1CC[C@H](c2ccc(Cl)cc2)[C@@H](C(=O)NCCCCCCCCNC(=O)[C@H]2CN(C)CC[C@@H]2c2ccc(Cl)cc2)C1	341	1980	294	56		
CN1CC[C@H](c2ccc(Cl)cc2)[C@@H](C(=O)NCCCCNC(=O)[C@H]2CN(C)CC[C@@H]2c2ccc(Cl)cc2)C1	33	104	81	534		
CNC(=O)[C@@H]1CN(C)CC[C@H]1c1ccc(Cl)cc1	> 70000		> 39000	> 10000	3110	
CN1CC[C@H](c2ccc(Cl)cc2)[C@@H](C(=O)NCCCCCNC(=O)c2ccc(Cl)cc2)C1	256	551	194	159		
CN1CC[C@@H](c2ccc(Cl)cc2)[C@H](C(=O)NCCCNC(=O)[C@@H]2CN(C)CC[C@H]2c2ccc(Cl)cc2)C1	5090	373	> 6500	342		
CN1CC[C@H](c2ccc(Cl)cc2)[C@@H](C(=O)NCCCCCNC(=O)c2ccccc2)C1	465	1200	409	494		
CN1CC[C@@H](c2ccc(Cl)cc2)[C@H](C(=O)NCCCCCCCCNC(=O)[C@@H]2CN(C)CC[C@H]2c2ccc(Cl)cc2)C1		1040		2.1		3180
CN1CC[C@H](c2ccc(Cl)cc2)[C@@H](C(=O)NCCCNC(=O)[C@H]2CN(C)CC[C@@H]2c2ccc(Cl)cc2)C1	14	146	8.4	566		
CN1CC[C@H](c2ccc(Cl)cc2)[C@@H](C(=O)OCCCCCOC(=O)[C@H]2CN(C)CC[C@@H]2c2ccc(Cl)cc2)C1	56	182	64	25		
CN1CC[C@H](c2ccc(Cl)cc2)[C@@H](C(=O)NCCCCCNC(=O)/C=C/c2ccc(Cl)cc2)C1	253	1080	246	133		
CN1CC[C@H](c2ccc(Cl)cc2)[C@@H](C(=O)NCCCCCCCNC(=O)[C@H]2CN(C)CC[C@@H]2c2ccc(Cl)cc2)C1	190	394	348	40		
CN1CC[C@@H](c2ccc(Cl)cc2)[C@H](C(=O)NCCCCCNC(=O)[C@@H]2CN(C)CC[C@H]2c2ccc(Cl)cc2)C1		393	1440			
CN1CC[C@H](c2ccc(Cl)cc2)[C@@H](C(=O)OCCCCCCCCOC(=O)[C@H]2CN(C)CC[C@@H]2c2ccc(Cl)cc2)C1	142	658	920	175		
CN1CC[C@H](c2ccc(Cl)cc2)[C@@H](C(=O)NCCCCCCNC(=O)[C@H]2CN(C)CC[C@@H]2c2ccc(Cl)cc2)C1	75	579	402	60		
CN1CC[C@H](c2ccc(Cl)cc2)[C@@H](C(=O)OCCCOC(=O)[C@H]2CN(C)CC[C@@H]2c2ccc(Cl)cc2)C1	108	340	68	730		
